Assay: Inhibition of pieris rapae Phenoloxidase

**Q.** For O=Cc1ccccc1 [BENZALDEHYDE], which IC50 is on record?
**A.** 5.9 mM

**Q.** Which IC50 does the source give for O=C(O)c1ccc(O)c(O)c1 [PROTOCATECHUIC ACID] here?
**A.** 29.5 mM

**Q.** For Nc1ccc(C(=O)O)cc1O, which IC50 is on record?
**A.** 25.5 mM

**Q.** With O=C(O)c1ccccc1O [SALICYLIC ACID] as the molecule, how does the IC50 read?
**A.** 33.8 mM

**Q.** For Nc1cc(C(=O)O)ccc1O, which IC50 is on record?
**A.** 3.8 mM

**Q.** For NC(=S)N/N=C/c1ccccc1O, which IC50 is on record?
**A.** 0.0022 mM

**Q.** With O=Cc1ccc(O)cc1O as the molecule, how does the IC50 read?
**A.** 4.88 mM

**Q.** With COc1cc(C(=O)O)ccc1O [VANILLIC ACID] as the molecule, how does the IC50 read?
**A.** 69 mM

**Q.** Which IC50 does the source give for O=C(O)c1ccc(O)cc1 [PARABEN] here?
**A.** 16.2 mM

**Q.** Which IC50 does the source give for O=C(O)c1cc(O)ccc1O [GENTISIC ACID] here?
**A.** 32.5 mM

**Q.** Which IC50 does the source give for O=C(O)c1ccc(O)cc1O [2,4-DIHYDROXYBENZOIC ACID] here?
**A.** 30.5 mM

**Q.** Which IC50 does the source give for COc1ccccc1C=O [2-METHOXYBENZALDEHYDE] here?
**A.** 107 mM

**Q.** For O=C(O)c1ccccc1 [BENZOIC ACID], which IC50 is on record?
**A.** 14.2 mM

**Q.** Which IC50 does the source give for NC(=S)N/N=C/c1ccccc1 [PHENYLTHIOSEMICARBAZONE] here?
**A.** 0.00084 mM

**Q.** Which IC50 does the source give for COc1ccc(C=O)cc1 here?
**A.** 1.9 mM

**Q.** Which IC50 does the source give for COc1ccc(C=O)cc1O [ISOVANILLIN] here?
**A.** 24.9 mM

**Q.** With CCCc1ccc(C(=O)O)cc1 as the molecule, how does the IC50 read?
**A.** 1.75 mM

**Q.** Which IC50 does the source give for CC(C)c1ccc(C=O)cc1 here?
**A.** 0.86 mM

**Q.** Which IC50 does the source give for CC(C)(C)c1ccc(C(=O)O)cc1 here?
**A.** 2.1 mM

**Q.** For COc1ccc(C(=O)O)cc1 [p-ANISIC ACID], which IC50 is on record?
**A.** 5.55 mM

**Q.** Which IC50 does the source give for O=Cc1ccc(O)c(O)c1 [PROTOCATECHUALDEHYDE] here?
**A.** 9 mM

**Q.** With O=Cc1cc(O)ccc1O as the molecule, how does the IC50 read?
**A.** 1.05 mM

**Q.** For NC(=S)N/N=C\C=C\c1ccccc1, which IC50 is on record?
**A.** 0.00065 mM

**Q.** For CC(C)(C)c1ccc(C=O)cc1, which IC50 is on record?
**A.** 0.72 mM

**Q.** For CC(C)c1ccc(C(=O)O)cc1, which IC50 is on record?
**A.** 1.92 mM

**Q.** Which IC50 does the source give for COc1ccc(C=O)c(O)c1 here?
**A.** 2 mM

**Q.** With COc1ccc(/C=N/NC(N)=S)cc1 as the molecule, how does the IC50 read?
**A.** 0.0006 mM

**Q.** For COc1cc(C=O)ccc1O [VANILLIN], which IC50 is on record?
**A.** 50.5 mM

**Q.** With COc1ccc(C(=O)O)cc1O [ISOVANILLIC ACID] as the molecule, how does the IC50 read?
**A.** 47.5 mM

**Q.** Which IC50 does the source give for COc1cccc(C=O)c1O here?
**A.** 5.75 mM

**Q.** For O=Cc1ccccc1O, which IC50 is on record?
**A.** 4.14 mM

**Q.** For COc1cccc(/C=N/NC(N)=S)c1, which IC50 is on record?
**A.** 0.00192 mM

**Q.** For O=C(O)c1cccc(O)c1 [3-HYDROXYBENZOIC ACID], which IC50 is on record?
**A.** 16.2 mM

**Q.** Which IC50 does the source give for COc1cccc(C=O)c1 here?
**A.** 42.9 mM

**Q.** With O=Cc1ccc(O)cc1 [4-HYDROXYBENZALDEHYDE] as the molecule, how does the IC50 read?
**A.** 3.12 mM

**Q.** Which IC50 does the source give for COc1cccc(C(=O)O)c1 here?
**A.** 13.3 mM

**Q.** For O=Cc1cccc(O)c1 [3-HYDROXYBENZALDEHYDE], which IC50 is on record?
**A.** 9.62 mM

— ChEMBL document CHEMBL1147031, “3D-QSAR and molecular docking studies of benzaldehyde thiosemicarbazone, benzaldehyde, benzoic acid, and their derivatives as phenoloxidase inhibitors” (Bioorg Med Chem, 2007)
